What was measured:
human MR = molecular target: T1, human MR (Homo sapiens, UniProt P08235); test: Mineralocorticoid Receptor Binding Assay ([3H]-aldosterone); details: [3H]-aldosterone binding, human MR expressed in Sf9 cells; read-out: MR Ki
T1 construct: The full length human MR gene is cloned from a human kidney or human brain cDNA library; His tag from the pAcHLT vector (own knowledge); made in house; host or cells: Sf9 insect cells (baculovirus, pAcHLT transfer vector)
T1 sequence (P08235 1-984): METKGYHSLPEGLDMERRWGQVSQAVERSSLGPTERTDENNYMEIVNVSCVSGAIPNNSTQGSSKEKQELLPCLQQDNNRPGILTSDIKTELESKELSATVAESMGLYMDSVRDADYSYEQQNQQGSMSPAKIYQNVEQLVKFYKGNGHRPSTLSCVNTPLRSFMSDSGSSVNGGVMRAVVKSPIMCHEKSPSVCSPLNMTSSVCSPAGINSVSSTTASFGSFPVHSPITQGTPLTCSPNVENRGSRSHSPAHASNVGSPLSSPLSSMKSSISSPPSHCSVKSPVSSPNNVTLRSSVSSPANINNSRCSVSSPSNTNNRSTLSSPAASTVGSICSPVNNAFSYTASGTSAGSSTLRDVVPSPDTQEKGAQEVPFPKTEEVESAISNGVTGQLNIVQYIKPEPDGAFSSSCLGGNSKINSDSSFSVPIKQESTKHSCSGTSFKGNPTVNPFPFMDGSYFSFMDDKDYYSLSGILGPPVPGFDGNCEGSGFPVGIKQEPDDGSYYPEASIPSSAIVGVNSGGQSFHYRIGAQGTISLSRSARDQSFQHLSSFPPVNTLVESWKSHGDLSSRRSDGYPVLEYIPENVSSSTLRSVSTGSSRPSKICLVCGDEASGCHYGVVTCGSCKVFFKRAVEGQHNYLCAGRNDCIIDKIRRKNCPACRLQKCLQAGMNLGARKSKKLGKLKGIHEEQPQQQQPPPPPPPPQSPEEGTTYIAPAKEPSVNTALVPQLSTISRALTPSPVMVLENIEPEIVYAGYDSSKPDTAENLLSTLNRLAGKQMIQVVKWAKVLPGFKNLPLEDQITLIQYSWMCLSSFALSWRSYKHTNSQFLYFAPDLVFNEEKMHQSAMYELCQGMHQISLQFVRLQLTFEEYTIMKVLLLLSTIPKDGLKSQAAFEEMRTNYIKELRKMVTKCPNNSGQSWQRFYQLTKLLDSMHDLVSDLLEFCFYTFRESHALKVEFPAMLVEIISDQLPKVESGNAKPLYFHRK
Summary of the method: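 Lysate supernatant of Sf9 cells expressing full-length human MR (20-25 μg protein) was incubated with 0.5 nM [3H]-aldosterone and test compound in molybdate/Tris/phosphate/glycerol buffer, pH 7.5, ~16 h at 4 °C. Bound ligand was filtered and counted by scintillation; IC50 is the concentration halving [3H]-aldosterone binding.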

glucocorticoid receptor = molecular target: T2, glucocorticoid receptor (Homo sapiens, UniProt P04150); test: Glucocorticoid Receptor Binding Assay ([3H]-dexamethasone, A549 cell extract); details: [3H]-dexamethasone binding, read-out: GR Ki
T2 construct: containing 50-200 ug of A549 cell extract and 1.86 nM [^3H]-dexamethasone; host or cells: A549 human lung epithelial cells (sonicated cell extract)
T2 sequence (P04150 1-777): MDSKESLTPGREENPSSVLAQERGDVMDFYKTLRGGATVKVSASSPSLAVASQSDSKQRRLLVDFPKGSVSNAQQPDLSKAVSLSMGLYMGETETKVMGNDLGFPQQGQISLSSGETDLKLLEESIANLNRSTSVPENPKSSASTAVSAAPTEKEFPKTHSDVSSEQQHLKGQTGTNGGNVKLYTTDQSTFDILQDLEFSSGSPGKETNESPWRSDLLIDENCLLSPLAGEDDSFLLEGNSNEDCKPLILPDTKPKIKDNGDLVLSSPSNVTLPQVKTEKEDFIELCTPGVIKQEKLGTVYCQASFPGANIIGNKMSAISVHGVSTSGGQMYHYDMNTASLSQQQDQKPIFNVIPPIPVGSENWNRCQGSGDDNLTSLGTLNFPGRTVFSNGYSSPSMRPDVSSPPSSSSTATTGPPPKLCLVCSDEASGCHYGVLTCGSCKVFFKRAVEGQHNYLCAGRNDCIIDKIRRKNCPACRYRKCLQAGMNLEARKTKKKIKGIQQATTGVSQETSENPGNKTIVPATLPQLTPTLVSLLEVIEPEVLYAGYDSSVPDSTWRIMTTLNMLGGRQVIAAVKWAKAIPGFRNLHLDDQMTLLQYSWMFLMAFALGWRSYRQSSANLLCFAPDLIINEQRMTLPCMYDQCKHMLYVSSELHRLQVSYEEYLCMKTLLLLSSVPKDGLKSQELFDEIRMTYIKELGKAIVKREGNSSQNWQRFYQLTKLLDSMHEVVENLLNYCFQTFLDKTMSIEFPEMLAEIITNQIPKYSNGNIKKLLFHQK
Summary of the method: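 A549 cell extract (50–200 ug) incubated with 1.86 nM [3H]-dexamethasone and test compound for 16 h at 4 °C in Tris-HCl pH 7.2 buffer with glycerol and molybdate. Unbound radioligand removed by dextran-coated charcoal, then supernatant bound counts measured by scintillation.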

| Compound | Ki (human MR) | Ki (glucocorticoid receptor) |
| --- | --- | --- |
| O=c1[nH]c2cc(C=C3c4cccc(F)c4CCc4c(F)cccc43)ccc2o1 [Example 471] | < 500 nM | < 500 nM |
| O=c1[nH]c2ccc(/C=C3\c4ccccc4CCc4cc(C(F)(F)F)ccc43)cc2[nH]1 [Example 472] | < 500 nM | < 10000 nM |
| O=c1[nH]c2ccc(/C=C3/c4ccccc4CCc4cc(C(F)(F)F)ccc43)cc2[nH]1 [Example 473] | < 500 nM | < 10000 nM |
| Fc1ccc2c(c1)CCc1ccccc1C2=Cc1cccnc1F [Example 474] | < 500 nM | < 1000 nM |
| CS(=O)(=O)Nc1cccc(/C=C2\c3ccccc3CCc3sccc32)c1 [Example 475] | < 500 nM | < 10000 nM |
| CS(=O)(=O)Nc1cccc(/C=C2/c3ccccc3CCc3sccc32)c1 [Example 476] | < 500 nM | < 500 nM |
| Nc1cccc(C=C2c3ccccc3CCc3sccc32)c1 [Example 477, 3-(9,10-Dihydro-1-thia-benzo[f]azulen-4-ylidenemethyl)-phenylamine] | < 500 nM | < 10000 nM |
| Nc1cccc(/C=C2\c3ccc(Cl)cc3CCc3sccc32)c1 [Example 478, 3-(7-Chloro-9,10-dihydro-1-thia-benzo[f]azulen-4-ylidenemethyl)-phenylamine] | < 500 nM | < 10000 nM |
| CS(=O)(=O)Nc1cccc(/C=C2\c3ccccc3CCc3sc(Cl)cc32)c1 [Example 481, N-[3-(2-Chloro-9,10-dihydro-1-thia-benzo[f]azulen-4-ylidenemethyl)-phenyl]-methanesulfonamide] | < 500 nM | < 500 nM |
| CS(=O)(=O)Nc1cccc(/C=C2\c3ccc(Cl)cc3CCc3sc(Cl)cc32)c1 [Example 482, N-[3-(2,7-Dichloro-9,10-dihydro-1-thia-benzo[f]azulen-4-ylidenemethyl)-phenyl]-methanesulfonamide] | < 500 nM | < 500 nM |
| O=c1[nH]c2ccc(/C=C3\c4ccc(F)cc4CCc4ncccc43)cc2[nH]1 [Example 487, (E)-5-(8-Fluoro-10,11-dihydro-benzo[4,5]cyclohepta[1,2-b]pyridin-5-ylidenemethyl)-1,3-dihydro-benzoimidazol-2-one] | < 500 nM | < 1000 nM |
| CS(=O)(=O)Nc1cc(F)cc(/C=C2\c3ccc(F)cc3CCc3ncccc32)c1 [Example 488, (E)-N-[3-Fluoro-5-(8-fluoro-10,11-dihydro-benzo[4,5]cyclohepta[1,2-b]pyridin-5-ylidenemethyl)-phenyl]-methanesulfonamide] | < 500 nM | < 500 nM |
| C(=C1c2ccccc2CCc2sccc21)c1ccccc1 [Example 489] | < 500 nM | < 10000 nM |
| Clc1ccc(C=C2c3ccccc3CCc3sccc32)c(Cl)c1 [Example 490] | < 1000 nM | < 10000 nM |
| Cc1cc(C)cc(C=C2c3ccccc3CCc3sccc32)c1 [Example 491] | < 500 nM | < 10000 nM |
| CS(=O)(=O)Nc1ccc(C=C2c3ccccc3CCc3sccc32)cc1 [Example 495] | < 500 nM | < 500 nM |
| CS(=O)(=O)Nc1cccc(/C=C2\c3ccc(Cl)cc3CCc3sccc32)c1 [Example 496] | < 500 nM | < 500 nM |
| Nc1cccc(C=C2c3ccccc3CCc3ccsc32)c1 [Example 498] | < 500 nM | < 1000 nM |
| CS(=O)(=O)Nc1cccc(/C=C2/c3ccc(Cl)cc3CCc3sccc32)c1 [Example 499] | < 500 nM | < 500 nM |
| CS(=O)(=O)Nc1cccc(/C=C2\c3ccccc3CCc3ccsc32)c1 [Example 501] | < 500 nM | < 500 nM |
| CS(=O)(=O)Nc1cccc(/C=C2/c3ccccc3CCc3ccsc32)c1 [Example 502] | < 500 nM | < 500 nM |
| O=S(=O)(Nc1cccc(/C=C2/c3ccccc3CCc3sccc32)c1)c1ccccc1 [Example 503] | < 500 nM | < 500 nM |

| Compound | Ki (human MR) | Ki (glucocorticoid receptor) |
| --- | --- | --- |
| CS(=O)(=O)Nc1cccc(C=C2c3ccccc3CCc3occc32)c1 [Example 504] | < 500 nM | < 500 nM |
| CS(=O)(=O)Nc1cccc(C=C2c3ccccc3CCc3ncccc32)c1 [Example 505] | < 500 nM | < 1000 nM |
| CS(=O)(=O)Nc1cccc(/C=C2\c3ccccc3CCc3ncccc32)c1 [Example 506] | < 500 nM | < 500 nM |
| Oc1cccc(/C=C2/c3ccccc3CCc3ncccc32)c1 [Example 507] | < 500 nM | < 500 nM |
| CS(=O)(=O)Nc1cccc(/C=C2/c3ccc(F)cc3CCc3ncccc32)c1 [Example 510] | < 500 nM | < 10000 nM |
| Oc1cccc(/C=C2/c3ccccc3CCc3ccncc32)c1 [Example 514] | < 1000 nM | < 500 nM |
| CS(=O)(=O)Nc1cccc(/C=C2\c3ccccc3CCc3ccncc32)c1 [Example 515] | < 500 nM | < 10000 nM |
| CS(=O)(=O)Nc1cccc(C[C@H]2c3ccccc3CCc3ncccc32)c1 [Example 517] | < 500 nM | < 1000 nM |
| O=c1[nH]c2ccc(/C=C3/c4ccc(F)cc4CCc4ncccc43)cc2[nH]1 [Example 518] | < 500 nM | < 500 nM |
| CS(=O)(=O)Nc1cccc(CC2c3ccc(F)cc3CCc3ncccc32)c1 (centres unmarked) [Example 519] | < 500 nM | < 500 nM |
| CS(=O)(=O)Nc1cccc(CC2c3ccc(F)cc3CCc3ncccc32)c1 (centres unmarked) [Example 520] | < 500 nM | < 500 nM |
| CS(=O)(=O)Nc1cccc(/C=C2/c3ccc(F)cc3CCc3nc(C(F)(F)F)ccc32)c1 [Example 521] | < 500 nM | < 500 nM |
| CS(=O)(=O)Nc1cccc(/C=C2\c3ccc(F)cc3CCc3nc(C(F)(F)F)ccc32)c1 [Example 522] | < 500 nM | < 500 nM |
| CS(=O)(=O)Nc1cc(/C=C2\c3ccc(F)cc3CCc3ncccc32)ccc1F [Example 524] | < 500 nM | < 500 nM |
| CS(=O)(=O)Nc1cc(F)cc(/C=C2/c3ccc(F)cc3CCc3ncccc32)c1 [Example 525] | < 500 nM | < 500 nM |
| Fc1ccc2c(c1)CCc1ncccc1/C2=C/c1ccccc1 [Example 526] | < 500 nM | < 10000 nM |
| Fc1ccc2c(c1)CCc1ncccc1/C2=C\c1ccccc1 [Example 527] | < 500 nM | < 10000 nM |
| Oc1ccc(/C=C2\c3ccc(F)cc3CCc3ncccc32)cc1 [Example 528] | < 500 nM | < 1000 nM |
| Oc1ccc(/C=C2/c3ccc(F)cc3CCc3ncccc32)cc1 [Example 529] | < 500 nM | < 10000 nM |
| Nc1ccccc1/C=C1\c2ccc(F)cc2CCc2ncccc21 [Example 530] | < 500 nM | < 500 nM |
| Nc1ccccc1/C=C1/c2ccc(F)cc2CCc2ncccc21 [Example 531] | < 500 nM | < 500 nM |

— US20060063759A1, “Tricyclic steroid hormone nuclear receptor modulators” (priority 2002, published 2006)
